Experimental data published in patent US20260008760A1, “DIPEPTIDYL PEPTIDASE 1 INHIBITORS AND USES THEREOF” (Insmed Incorporated, priority 2024, published 2026).

What was measured:
DPP1 in HL-60 cells = DPP1 in HL-60 cells (Homo sapiens, UniProt P53634); test: DPP1 Cell Single-Point Percent Inhibition Testing; format: cell-based; design: host or cells: HL-60 cells; conditions: final compound concentration 5 nM, n = 1
Protocol: Example 100. DPP1 Cell Single-Point Percent Inhibition Testing
HL-60 cells (ATCC; Manassas, VA) were maintained in RPMI-1640 supplemented with 20% heat-inactivated FBS and 1× Antibiotic Antimycotic (Cytiva; Marlborough, MA). Media was changed every three to four days and cells were not allowed to exceed 1×10^6 cells per mL. Prior to assay, cells were collected by centrifugation at 500 rcf for 3 minutes, resuspended in RPMI (with no additional supplements) and counted. Cells were diluted in RPMI to a concentration of 5×10^5 live cells per mL and transferred to black 96-well plates for assay, 60 μL per well. Test articles were diluted to 25 nM in RPMI plus 0.5% DMSO, and 20 μL was added to each assay well. Compound was allowed to pre-incubate with cells with gentle shaking at 100 rpm for 60 minutes at 37° C. in a cell culture incubator maintained at 5% CO2, after which 20 μL of 500 μM H-Gly-Phe-AFC cell-permeable substrate (MP Biomedicals; Solon, OH) in RPMI was added to each well, giving final compound concentration of 5 nM, a final substrate concentration of 100 μM and a final DMSO concentration of 0.1%. Plates were returned to the incubator with shaking at 100 rpm for 30 minutes, after which fluorescence was measured at Excitation/Emission 400/505 nm. Percent Inhibition was calculated from RFU values by first subtracting background values (wells in which RPMI was substituted for cells) from each well, and then subtracting background-subtracted RFU derived from wells that received a final concentration of 10 μM brensocatib. This value represents the non-specific substrate cleavage from the HL-60 cells, and the remaining RFU should theoretically be solely the contribution of DPP1 enzyme activity. The final percent inhibition value was calculated for each test article based on remaining RFU compared to RFU from wells that received only vehicle control.

human DPP1 enzyme = human DPP1 enzyme (Homo sapiens, UniProt P53634); test: Human DPP1 Enzyme Single-Point Percent Inhibition Testing (HL-60 lysate); format: biochemical; design: A crude lysate of HL-60 cells (ATCC; Manassas, VA) was used as a source of human DPP1 enzyme; host or cells: HL-60 cells (crude lysate); conditions: final compound concentration of 10 nM, 400 μM H-Gly-Arg-AMC, n = 1
Sequence of human DPP1 enzyme (P53634 25-463): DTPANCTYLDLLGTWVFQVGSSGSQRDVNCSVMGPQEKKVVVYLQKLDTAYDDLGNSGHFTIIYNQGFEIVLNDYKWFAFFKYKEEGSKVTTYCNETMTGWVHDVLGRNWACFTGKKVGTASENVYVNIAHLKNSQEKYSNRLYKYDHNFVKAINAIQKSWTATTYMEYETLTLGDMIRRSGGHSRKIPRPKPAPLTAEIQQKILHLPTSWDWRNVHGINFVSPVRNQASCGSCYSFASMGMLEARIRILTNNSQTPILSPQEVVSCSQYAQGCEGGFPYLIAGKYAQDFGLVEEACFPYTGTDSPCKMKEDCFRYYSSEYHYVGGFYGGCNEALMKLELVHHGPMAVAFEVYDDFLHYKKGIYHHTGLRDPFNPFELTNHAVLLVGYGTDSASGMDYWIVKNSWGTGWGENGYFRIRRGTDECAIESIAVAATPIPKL
Protocol: Example 98. Human DPP1 Enzyme Single-Point Percent Inhibition Testing
A crude lysate of HL-60 cells (ATCC; Manassas, VA) was used as a source of human DPP1 enzyme in the assay. Lysate was prepared in 1% Triton X-100 in PBS at a concentration of 20,000 live cells per μL of lysis buffer and was centrifuged at 16,000 rcf for 10 minutes at 4° C., after which supernatant was collected and flash-frozen in liquid nitrogen. Test articles were applied to human DPP1 enzyme in Assay Buffer (25 mM MES pH 6.0, 50 mM NaCl, 5 mM DTT) in a total reaction volume of 125 μL. 25 μL of compound diluted to 50 nM in Assay Buffer plus 5% DMSO was first added to 50 μL of HL-60 lysate diluted to contain a DPP1 enzyme concentration of roughly 1 ng/μL and allowed to pre-incubate for 10 minutes at 37° C. after which 50 μL of 1000 μM H-Gly-Arg-AMC substrate (Bachem; St. Torrance, CA) was added, giving final compound concentration of 10 nM, a final substrate concentration of 400 μM and a final DMSO concentration of 1%. Substrate cleavage was measured for 90 minutes at 37° C., with fluorescence at Excitation/Emission 350/450 nm measured every 5 minutes. DPP1 concentration was interpolated based on its activity relative to a standard curve of activated human recombinant DPP1 enzyme. Percent inhibition at 10 nM was calculated for each test article based on remaining DPP1 activity compared to enzyme activity in wells that received only vehicle control.

Sequence of DPP1 in HL-60 cells (P53634 25-463): as above

SMILES | inhibition at 0.005 µM (DPP1 in HL-60 cells) | inhibition at 0.01 µM (human DPP1 enzyme)
COC1CNC[C@@H](C(=O)N[C@H](C#N)Cc2ccc(-c3cc4c(C)nc(C)cn4c3)cc2)OC1 (some centres unmarked) [Compound A86] | ≤ 76.5% | 40 to 66.7%
N#C[C@H](Cc1ccc(-c2ccc3c(n2)CCCN3)cc1)NC(=O)[C@@H]1CNCCCO1 [Compound A117] | ≤ 76.5% | ≤ 40%
CO[C@H]1CCO[C@H](C(=O)NC(C#N)Cc2cc3c(cc2F)-c2cc(C#N)ccc2CO3)CNC1 (some centres unmarked) [Compound B25] | ≤ 76.5% | 40 to 66.7%
CN1CCC2(C1)OC(=O)c1ccc(-c3ccc(C[C@@H](C#N)NC(=O)[C@@H]4CNCCCCO4)cc3)cc12 (some centres unmarked) [Compound 38] | ≤ 76.5% | ≤ 40%
COC1CNC[C@@H](C(=O)N[C@H](C#N)Cc2ccc(-c3cnc4c(n3)CCCC4)cc2F)OC1 (some centres unmarked) [Compound A91] | ≤ 76.5% | ≥ 66.7%
N#C[C@H](Cc1ccc(-c2cnc3c(n2)CCCC3)cc1F)NC(=O)[C@@H]1CNCCCO1 [Compound A120] | ≤ 76.5% | ≤ 40%
C[C@@H]1NC[C@@H](C(=O)N[C@H](C#N)Cc2ccc(-c3ccc4c(n3)CCCN4)cc2F)OC[C@@H]1O [Compound A107] | ≤ 76.5% | ≤ 40%
CO[C@@H]1CCNC[C@@H](C(=O)N[C@H](C#N)Cc2ccc(-c3cc4c(C)nc(C)c(C)n4c3)cc2)OC1 [Compound A123] | ≥ 93.9% | ≥ 66.7%
COC1CNC[C@@H](C(=O)N[C@H](C#N)Cc2ccc(-c3cnc4c(n3)CCCC4)cc2)OC1 (some centres unmarked) [Compound A90] | ≤ 76.5% | ≥ 66.7%
CO[C@@H]1CCNC[C@@H](C(=O)N[C@H](C#N)Cc2ccc(-c3cc4c(C)nc(C)cn4c3)cc2F)OC1 [Compound A82] | 76.5 to 93.9% | ≥ 66.7%
N#C[C@H](Cc1ccc(-c2ccc3c(c2)C2(CCN(C4CCC4)CC2)OC3)cc1F)NC(=O)[C@@H]1CNCCCCO1 [Compound 44] | ≤ 76.5% | 40 to 66.7%
CO[C@H]1CCO[C@H](C(=O)N[C@H](C#N)Cc2ccc(-c3ccc4c(c3)C3(CC4)CCN(C)CC3)cc2F)CNC1 [Compound F24] | ≤ 76.5% | ≥ 66.7%
C[C@@H]1NC[C@@H](C(=O)NC(C#N)Cc2cc3c(cc2F)-c2ccc4oc(=O)n(C)c4c2CO3)OC[C@@H]1O (some centres unmarked) [Compound C23] | ≤ 76.5% | 40 to 66.7%
N#Cc1ccc2c(c1)-c1cc(F)c(CC(C#N)NC(=O)[C@@H]3CNCCCCO3)cc1OC2 (some centres unmarked) [Compound B29] | ≤ 76.5% | ≤ 40%
CN1CCN(Cc2ccc(-c3ccc(C[C@@H](C#N)NC(=O)[C@@H]4CNCCCCO4)cc3)cc2)CC1 [Compound 40] | ≤ 76.5% | ≤ 40%
N#Cc1ccc2c(c1)COc1cc(C[C@@H](C#N)NC(=O)[C@@H]3CNCCCCO3)c(F)cc1-2 [Compound B28] | ≤ 76.5% | 40 to 66.7%
Cc1cn2cc(-c3ccc(C[C@@H](C#N)NC(=O)[C@@H]4CN[C@@H](C)[C@@H](O)CO4)cc3)cc2c(C)n1 [Compound A104] | ≤ 76.5% | ≤ 40%
CO[C@@H]1CCNC[C@@H](C(=O)N[C@H](C#N)Cc2ccc(-c3cnc4c(n3)CCCC4)cc2F)OC1 [Compound A85] | ≤ 76.5% | ≥ 66.7%
CO[C@H]1CCO[C@H](C(=O)N[C@H](C#N)Cc2ccc(-c3cnc4c(n3)CCCC4)cc2F)CNC1 [Compound A97] | ≤ 76.5% | 40 to 66.7%
CO[C@@H]1CCNC[C@@H](C(=O)NC(C#N)Cc2cc3c(cc2F)-c2cc4c(cc2CO3)oc(=O)n4C)OC1 (some centres unmarked) [Compound C11] | 76.5 to 93.9% | ≥ 66.7%
CO[C@@H]1CCNC[C@@H](C(=O)N[C@H](C#N)Cc2ccc(-c3ccc(CN4CCN(C)CC4)cc3)cc2)OC1 [Compound F10] | ≤ 76.5% | ≥ 66.7%
Cc1cn2cc(-c3ccc(C[C@@H](C#N)NC(=O)[C@@H]4CN[C@@H](C)[C@@H](O)CO4)c(F)c3)cc2c(C)n1 [Compound A106] | ≤ 76.5% | ≤ 40%
CO[C@@H]1CCNC[C@@H](C(=O)N[C@H](C#N)Cc2ccc(-c3ccc4c(n3)CCCN4)cc2F)OC1 [Compound A83] | 76.5 to 93.9% | ≥ 66.7%
C[C@@H]1NC[C@@H](C(=O)N[C@H](C#N)Cc2ccc(-c3cnc4c(n3)CCCC4)cc2)OC[C@@H]1O [Compound A108] | ≤ 76.5% | ≤ 40%
CO[C@H]1CCO[C@H](C(=O)N[C@H](C#N)Cc2cc3c(cc2F)-c2ccc(C#N)cc2CO3)CNC1 [Compound B24] | ≤ 76.5% | 40 to 66.7%
N#C[C@H](Cc1ccc(-c2cnc3c(n2)CCCC3)cc1)NC(=O)[C@@H]1CNCCCCO1 [Compound A114] | ≤ 76.5% | ≤ 40%
CO[C@@H]1CCNC[C@@H](C(=O)N[C@H](C#N)Cc2ccc(-c3cnc4c(n3)CCCC4)cc2)OC1 [Compound A84] | ≤ 76.5% | 40 to 66.7%

More lines, now with the values ahead:

inhibition at 0.005 µM (DPP1 in HL-60 cells) | inhibition at 0.01 µM (human DPP1 enzyme) | SMILES
76.5 to 93.9% | ≥ 66.7% | COC1CNC[C@@H](C(=O)N[C@H](C#N)Cc2ccc(-c3ccc4nnn(C)c4c3)cc2F)OC1 (some centres unmarked) [Compound H14]
≤ 76.5% | ≥ 66.7% | C[C@@H]1NC[C@@H](C(=O)N[C@H](C#N)Cc2ccc(-c3ccc4cnn(C5CCN(C)CC5)c4c3)cc2)OC[C@H]1O [Compound H21]
≤ 76.5% | 40 to 66.7% | CO[C@H]1CCO[C@H](C(=O)N[C@H](C#N)Cc2ccc(-c3ccc4nnn(C)c4c3)cc2F)CNC1 [Compound H20]
≤ 76.5% | ≤ 40% | Cn1nnc2ccc(-c3ccc(C[C@@H](C#N)NC(=O)[C@@H]4CNCCCCO4)cc3)cc21 [Compound H36]
≤ 76.5% | ≤ 40% | N#C[C@H](Cc1ccc(-c2ccn3cnnc3c2)cc1)NC(=O)[C@@H]1CNCCCCO1 [Compound H44]
≥ 93.9% | ≥ 66.7% | CCN1C(=O)Cc2ccc(-c3ccc(C[C@@H](C#N)NC(=O)[C@@H]4CNCC(OC)CO4)c(F)c3)cc21 (some centres unmarked) [Compound G4]
≤ 76.5% | ≤ 40% | C[C@@H]1NC[C@@H](C(=O)N[C@H](C#N)Cc2ccc(-c3ccn4ccnc4c3)cc2)OC[C@@H]1O [Compound H43]
≤ 76.5% | 40 to 66.7% | COC1CNC[C@@H](C(=O)N[C@H](C#N)Cc2ccc(-c3ccn4ccnc4c3)cc2)OC1 (some centres unmarked) [Compound H40]
≤ 76.5% | ≥ 66.7% | CCN1C(=O)Cc2ccc(-c3ccc(C[C@@H](C#N)NC(=O)[C@@H]4CNCC[C@@H](OC)CO4)cc3)cc21 [Compound G1]
≤ 76.5% | ≤ 40% | CO[C@H]1CCO[C@H](C(=O)N[C@H](C#N)Cc2ccc(-c3ccn4ccnc4c3)cc2)CNC1 [Compound H41]
≤ 76.5% | 40 to 66.7% | C[C@@H]1NC[C@@H](C(=O)N[C@H](C#N)Cc2ccc(-c3ccc4nnn(C)c4c3)cc2F)OC[C@@H]1O [Compound H32]
≤ 76.5% | ≥ 66.7% | CN1CCC(n2ncc3ccc(-c4ccc(C[C@@H](C#N)NC(=O)[C@@H]5CNCCCCO5)c(F)c4)cc32)CC1 [Compound H34]
≤ 76.5% | ≤ 40% | CO[C@H]1CCO[C@H](C(=O)N[C@H](C#N)Cc2ccc(-c3ccc4cnn(C)c4c3)cc2)CNC1 [Compound H17]
